According to patent publication US9624214B2, “Amino-substituted imidazo[1,2-a]pyridinecarboxamides and their use” (BAYER PHARMA AKTIENGESELLSCHAFT, priority 2012, dated 2017):

The molecules below were run against T1, recombinant guanylate cyclase reporter cell line (Rattus norvegicus, UniProt P19686+P20595) (assay: B-2. Action on recombinant guanylate cyclase reporter cell line). Conditions: MEC = minimal effective concentration; in some cases mean values from individual determinations.
T1 construct: expressed in transfected cells
T1 sequence (P20595 1-619): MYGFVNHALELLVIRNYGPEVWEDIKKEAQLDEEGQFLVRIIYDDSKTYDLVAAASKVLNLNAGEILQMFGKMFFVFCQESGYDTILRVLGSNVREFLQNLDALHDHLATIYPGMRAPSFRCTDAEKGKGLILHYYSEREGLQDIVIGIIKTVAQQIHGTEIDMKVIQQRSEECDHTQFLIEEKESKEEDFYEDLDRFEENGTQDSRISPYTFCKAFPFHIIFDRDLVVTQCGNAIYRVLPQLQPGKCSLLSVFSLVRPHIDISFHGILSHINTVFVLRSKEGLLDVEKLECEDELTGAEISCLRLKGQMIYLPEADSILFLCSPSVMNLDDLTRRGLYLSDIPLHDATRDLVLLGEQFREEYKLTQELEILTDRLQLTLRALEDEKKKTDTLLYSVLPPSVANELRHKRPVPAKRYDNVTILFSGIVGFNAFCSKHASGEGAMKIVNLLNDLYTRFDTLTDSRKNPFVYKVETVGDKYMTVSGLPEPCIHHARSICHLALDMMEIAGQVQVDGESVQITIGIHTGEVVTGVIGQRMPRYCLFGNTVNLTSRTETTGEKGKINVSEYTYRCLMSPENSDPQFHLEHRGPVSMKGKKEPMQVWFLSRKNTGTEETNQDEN
T1 sequence (P19686 1-690): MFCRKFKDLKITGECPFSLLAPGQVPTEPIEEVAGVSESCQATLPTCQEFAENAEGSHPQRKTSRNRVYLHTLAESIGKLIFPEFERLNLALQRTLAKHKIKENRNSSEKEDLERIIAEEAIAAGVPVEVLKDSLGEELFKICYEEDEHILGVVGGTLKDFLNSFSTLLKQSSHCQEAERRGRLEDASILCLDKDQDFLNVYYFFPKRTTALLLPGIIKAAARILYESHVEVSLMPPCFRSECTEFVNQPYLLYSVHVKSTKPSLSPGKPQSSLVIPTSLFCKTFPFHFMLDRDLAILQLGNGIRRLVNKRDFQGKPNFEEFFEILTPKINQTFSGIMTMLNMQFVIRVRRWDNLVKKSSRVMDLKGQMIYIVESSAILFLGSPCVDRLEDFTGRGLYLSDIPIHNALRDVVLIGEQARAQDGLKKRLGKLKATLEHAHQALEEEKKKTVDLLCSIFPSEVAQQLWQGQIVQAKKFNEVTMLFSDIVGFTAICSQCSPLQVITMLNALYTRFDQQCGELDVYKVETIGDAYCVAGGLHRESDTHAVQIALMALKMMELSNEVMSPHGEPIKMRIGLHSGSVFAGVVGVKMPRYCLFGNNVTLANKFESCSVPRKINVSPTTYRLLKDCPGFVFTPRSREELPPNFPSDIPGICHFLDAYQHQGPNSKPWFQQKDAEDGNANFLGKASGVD
Format: cell-based
In short: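 Whole-cell reporter assay with recombinant guanylate cyclase; endpoint = minimal effective concentration.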

| MEC [µM] | SMILES |
| --- | --- |
| 0.30 | Cc1nc2c(OCc3c(F)cccc3F)cc(Cl)cn2c1C(=O)NCC(N)C(C)C (single isomer, unassigned) [Example 211, ent-N-(2-Amino-3-methylbutyl)-6-chloro-8-[(2,6-difluorobenzyl)oxy]-2-methylimidazo[1,2-a]-pyridine-3-carboxamide] |
| 1.00 | Cc1nc2c(OCc3c(F)cccc3F)cc(Cl)cn2c1C(=O)NCC(N)C(C)C (single isomer, unassigned) [Example 212, ent-N-(2-Amino-3-methylbutyl)-6-chloro-8-[(2,6-difluorobenzyl)oxy]-2-methylimidazo[1,2-a]-pyridine-3-carboxamide] |
| 0.30 | COCC(C)(N)CNC(=O)c1c(C)nc2c(OCc3c(F)cccc3F)cccn12 (single isomer, unassigned) [Example 214, ent-N-(2-Amino-3-methoxy-2-methylpropyl)-8-[(2,6-difluorobenzyl)oxy]-2-methylimidazo[1,2-a]-pyridine-3-carboxamide] |
| 1.00 | COCC(C)(N)CNC(=O)c1c(C)nc2c(OCc3c(F)cccc3F)cccn12 (single isomer, unassigned) [Example 215, ent-N-(2-Amino-3-methoxy-2-methylpropyl)-8-[(2,6-difluorobenzyl)oxy]-2-methylimidazo[1,2-a]-pyridine-3-carboxamide] |
| 0.30 | Cc1cc(OCc2c(F)cccc2F)c2nc(C)c(C(=O)NCC(C)(N)CC(C)C)n2c1 (single isomer, unassigned) [Example 219, ent-N-(2-Amino-2,4-dimethylpentyl)-8-[(2,6-difluorobenzyl)oxy]-2,6-dimethylimidazo[1,2-a]-pyridine-3-carboxamide] |
| 0.10 | Cc1cc(OCc2c(F)cccc2F)c2nc(C)c(C(=O)NCC(C)(N)CC(C)C)n2c1 (single isomer, unassigned) [Example 220, ent-N-(2-Amino-2,4-dimethylpentyl)-8-[(2,6-difluorobenzyl)oxy]-2,6-dimethylimidazo[1,2-a]-pyridine-3-carboxamide] |
| 0.30 | Cc1cc(OCc2c(F)cccc2F)c2nc(C)c(C(=O)NCC(N)C(C)C)n2c1 (single isomer, unassigned) [Example 223, ent-N-(2-Amino-3-methylbutyl)-8-[(2,6-difluorobenzyl)oxy]-2,6-dimethylimidazo[1,2-a]pyridine-3-carboxamide] |
| 0.30 | Cc1cc(OCc2c(F)cccc2F)c2nc(C)c(C(=O)NCC(N)C(C)C)n2c1 (single isomer, unassigned) [Example 224, ent-N-(2-Amino-3-methylbutyl)-8-[(2,6-difluorobenzyl)oxy]-2,6-dimethylimidazo[1,2-a]pyridine-3-carboxamide] |
| 0.10 | Cc1nc2c(OCc3c(F)cccc3F)cc(Cl)cn2c1C(=O)NCC(C)(N)CC(C)C (single isomer, unassigned) [Example 226, ent-N-(2-Amino-2,4-dimethylpentyl)-6-chloro-8-[(2,6-difluorobenzyl)oxy]-2-methylimidazo[1,2-a]pyridine-3-carboxamide] |
| 0.30 | Cc1nc2c(OCc3c(F)cccc3F)cc(Cl)cn2c1C(=O)NCC(C)(N)CC(C)C (single isomer, unassigned) [Example 227, ent-N-(2-Amino-2,4-dimethylpentyl)-6-chloro-8-[(2,6-difluorobenzyl)oxy]-2-methylimidazo[1,2-a]pyridine-3-carboxamide] |
| 1.00 | Cc1nc2c(OCc3c(F)cccc3F)cccn2c1C(=O)NCC(N)C(C)C (single isomer, unassigned) [Example 228, ent-N-(2-Amino-3-methylbutyl)-8-[(2,6-difluorobenzyl)oxy]-2-methylimidazo[1,2-a]pyridine-3-carboxamide] |
| 1.00 | Cc1nc2c(OCc3c(F)cccc3F)cccn2c1C(=O)NCC(N)C(C)C (single isomer, unassigned) [Example 229, ent-N-(2-Amino-3-methylbutyl)-8-[(2,6-difluorobenzyl)oxy]-2-methylimidazo[1,2-a]pyridine-3-carboxamide] |
| 0.30 | Cc1nc2c(OCc3c(F)cccc3F)cccn2c1C(=O)NCC(N)C(F)(F)C(F)F (single isomer, unassigned) [Example 231, ent-N-(2-Amino-3,3,4,4-tetrafluorobutyl)-8-[(2,6-difluorobenzyl)oxy]-2-methylimidazo[1,2-a]-pyridine-3-carboxamide] |
| 0.10 | CCCC(C)(N)CNC(=O)c1c(C)nc2c(OCc3c(F)cccc3F)cc(C)cn12 (single isomer, unassigned) [Example 233, ent-N-(2-Amino-2-methylpentyl)-8-[(2,6-difluorobenzyl)oxy]-2,6-dimethylimidazo[1,2-a]pyridine-3-carboxamide] |
| 0.03 | CCCC(C)(N)CNC(=O)c1c(C)nc2c(OCc3c(F)cccc3F)cc(C)cn12 (single isomer, unassigned) [Example 234, ent-N-(2-Amino-2-methylpentyl)-8-[(2,6-difluorobenzyl)oxy]-2,6-dimethylimidazo[1,2-a]pyridine-3-carboxamide] |
| 0.30 | Cc1nc2c(OCc3c(F)cccc3F)cc(Cl)cn2c1C(=O)NCC(C)(N)C(F)(F)F (single isomer, unassigned) [Example 237, ent-N-(2-Amino-3,3,3-trifluoro-2-methylpropyl)-6-chloro-8-[(2,6-difluorobenzyl)oxy]-2-methylimidazo[1,2-a]pyridine-3-carboxamide] |
| 1.00 | Cc1nc2c(OCc3c(F)cccc3F)cc(Cl)cn2c1C(=O)NCC(C)(N)C(F)(F)F (single isomer, unassigned) [Example 238, ent-N-(2-Amino-3,3,3-trifluoro-2-methylpropyl)-6-chloro-8-[(2,6-difluorobenzyl)oxy]-2-methylimidazo[1,2-a]pyridine-3-carboxamide] |
| 0.30 | Cc1cc(OCc2c(F)cccc2F)c2nc(C)c(C(=O)NCC(C)(N)C(F)(F)F)n2c1 (single isomer, unassigned) [Example 240, ent-N-(2-Amino-3,3,3-trifluoro-2-methylpropyl)-8-[(2,6-difluorobenzyl)oxy]-2,6-dimethylimidazo-[1,2-a]pyridine-3-carboxamide] |
| 0.30 | Cc1cc(OCc2c(F)cccc2F)c2nc(C)c(C(=O)NCC(C)(N)C(F)(F)F)n2c1 (single isomer, unassigned) [Example 241, ent-N-(2-Amino-3,3,3-trifluoro-2-methylpropyl)-8-[(2,6-difluorobenzyl)oxy]-2,6-dimethylimidazo-[1,2-a]pyridine-3-carboxamide] |
| 0.30 | COCC(N)CNC(=O)c1c(C)nc2c(OCc3c(F)cccc3F)cc(C)cn12 (single isomer, unassigned) [Example 242, ent-N-(2-Amino-3-methoxypropyl)-8-[(2,6-difluorobenzyl)oxy]-2,6-dimethylimidazo[1,2-a]-pyridine-3-carboxamide] |
| 1.00 | COCC(N)CNC(=O)c1c(C)nc2c(OCc3c(F)cccc3F)cc(C)cn12 (single isomer, unassigned) [Example 243, ent-N-(2-Amino-3-methoxypropyl)-8-[(2,6-difluorobenzyl)oxy]-2,6-dimethylimidazo[1,2-a]-pyridine-3-carboxamide] |
| 0.10 | CCCC(C)(N)CNC(=O)c1c(C)nc2c(OCc3c(F)cccc3F)cc(Cl)cn12 (single isomer, unassigned) [Example 245, ent-N-(2-Amino-2-methylpentyl)-6-chloro-8-[(2,6-difluorobenzyl)oxy]-2-methylimidazo[1,2-a]-pyridine-3-carboxamide] |
| 0.30 | CCCC(C)(N)CNC(=O)c1c(C)nc2c(OCc3c(F)cccc3F)cc(Cl)cn12 (single isomer, unassigned) [Example 246, ent-N-(2-Amino-2-methylpentyl)-6-chloro-8-[(2,6-difluorobenzyl)oxy]-2-methylimidazo[1,2-a]-pyridine-3-carboxamide] |
